Earlier results on one compound are cited in patent publication US20240423899A1, “LONGEVITY MOISTURIZING CREAM” (Wellbeam Consumer Health Intermediate, LLC, priority 2023, published 2024).

The data set relates to skin. The conditions noted are these: topical application.

As for `C=C[C@@](C)(/C=C/c1ccc(O)cc1)CCC=C(C)C` [bakuchiol], the “irritating effect on the skin” value was “no irritating effect”; the “lines and wrinkles, pigmentation, elasticity, firmness, and overall reduction in photo-damage” value was “significant improvement”.
